Assay results: ChEMBL document CHEMBL4342498, “Design and Discovery of an Orally Efficacious Spiroindolinone-Based Tankyrase Inhibitor for the Treatment of Colon Cancer” (J Med Chem, 2020)
Values after ≈ are worked out from the molar mass of the structure shown.

Key:
[1] = target: T1, Poly [ADP-ribose] polymerase tankyrase-2 (Homo sapiens, UniProt Q9H2K2); assay: Inhibition of recombinant human N-terminal TEV cleavage site-fused/FLAG-poly his-tagged TNKS2 ARC5-SAM-PARP domain (613 to 1166 residues) expressed in Escherichia coli assessed as reduction in auto-PARylation preincubated for 10 mins followed by biotinylated-NAD+ addition and measured after 45 mins by ELISA
T1 sequence (Q9H2K2 whole entry): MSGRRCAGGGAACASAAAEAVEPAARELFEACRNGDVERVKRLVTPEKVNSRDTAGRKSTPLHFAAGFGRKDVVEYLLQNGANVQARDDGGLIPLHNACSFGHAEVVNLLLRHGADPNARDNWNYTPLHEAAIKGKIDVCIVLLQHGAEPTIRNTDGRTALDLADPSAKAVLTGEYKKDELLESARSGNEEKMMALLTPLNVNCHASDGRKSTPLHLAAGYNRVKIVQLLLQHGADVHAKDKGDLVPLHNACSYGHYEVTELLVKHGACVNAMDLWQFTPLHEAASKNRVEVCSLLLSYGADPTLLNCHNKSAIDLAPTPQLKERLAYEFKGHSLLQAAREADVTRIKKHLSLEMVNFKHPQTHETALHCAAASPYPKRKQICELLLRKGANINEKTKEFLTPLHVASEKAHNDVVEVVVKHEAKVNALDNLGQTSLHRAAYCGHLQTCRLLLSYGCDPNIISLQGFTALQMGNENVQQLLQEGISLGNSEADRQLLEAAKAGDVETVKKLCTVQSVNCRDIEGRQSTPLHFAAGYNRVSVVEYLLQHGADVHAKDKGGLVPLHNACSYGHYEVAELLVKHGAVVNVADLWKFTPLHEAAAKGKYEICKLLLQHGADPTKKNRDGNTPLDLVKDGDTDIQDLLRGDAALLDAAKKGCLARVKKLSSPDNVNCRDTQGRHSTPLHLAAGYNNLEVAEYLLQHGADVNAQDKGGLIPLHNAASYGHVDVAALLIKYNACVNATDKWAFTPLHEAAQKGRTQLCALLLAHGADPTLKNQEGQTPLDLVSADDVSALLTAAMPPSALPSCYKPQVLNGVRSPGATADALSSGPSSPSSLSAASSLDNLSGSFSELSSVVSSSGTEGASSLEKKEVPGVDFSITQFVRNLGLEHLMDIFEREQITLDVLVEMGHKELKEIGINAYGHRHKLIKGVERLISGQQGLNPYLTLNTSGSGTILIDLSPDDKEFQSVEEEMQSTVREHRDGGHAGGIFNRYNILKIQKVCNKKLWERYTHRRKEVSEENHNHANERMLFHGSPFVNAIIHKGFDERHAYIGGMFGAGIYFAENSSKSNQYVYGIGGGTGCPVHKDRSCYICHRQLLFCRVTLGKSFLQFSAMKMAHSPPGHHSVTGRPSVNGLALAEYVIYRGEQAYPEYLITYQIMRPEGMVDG

[2] = tested on: COLO 320DM; assay: Antiproliferative activity against human COLO320DM cells assessed as inhibition of cell growth measured after 4 days by CellTiter-Glo assay; type: functional; settings: 96 h
[3] = Stability in mouse liver microsomes assessed as parent compound remaining at 1 uM measured after 60 mins in presence of NADPH by LC-MS/MS analysis; type: ADME, Microsome; settings: read-out: Stability
[4] = Stability in human liver microsomes assessed as parent compound remaining at 1 uM measured after 60 mins in presence of NADPH by LC-MS/MS analysis; type: ADME, Microsome; settings: read-out: Stability
[5] = tested on: MDR1; assay: Efflux ratio of permeability across basolateral to apical side over apical to basolateral side in MDCK2-MDR1 cells; type: ADME, cell-based, Canis lupus familiaris; settings: dog, MDCK-MDR1
[6] = Efflux ratio of permeability across basolateral to apical side over apical to basolateral side in MDCK2 cells; type: ADME, cell-based, Canis lupus familiaris, MDCK-II; settings: dog, mdck
[7] = Net efflux ratio of permeability across basolateral to apical side over apical to basolateral side in MDCK2-MDR1 cells to MDCK2 cells; type: ADME, cell-based, Canis lupus familiaris; settings: dog, mdck
[8] = target: T2, Poly [ADP-ribose] polymerase tankyrase-1 (Homo sapiens, UniProt O95271)
T2 sequence (O95271 whole entry): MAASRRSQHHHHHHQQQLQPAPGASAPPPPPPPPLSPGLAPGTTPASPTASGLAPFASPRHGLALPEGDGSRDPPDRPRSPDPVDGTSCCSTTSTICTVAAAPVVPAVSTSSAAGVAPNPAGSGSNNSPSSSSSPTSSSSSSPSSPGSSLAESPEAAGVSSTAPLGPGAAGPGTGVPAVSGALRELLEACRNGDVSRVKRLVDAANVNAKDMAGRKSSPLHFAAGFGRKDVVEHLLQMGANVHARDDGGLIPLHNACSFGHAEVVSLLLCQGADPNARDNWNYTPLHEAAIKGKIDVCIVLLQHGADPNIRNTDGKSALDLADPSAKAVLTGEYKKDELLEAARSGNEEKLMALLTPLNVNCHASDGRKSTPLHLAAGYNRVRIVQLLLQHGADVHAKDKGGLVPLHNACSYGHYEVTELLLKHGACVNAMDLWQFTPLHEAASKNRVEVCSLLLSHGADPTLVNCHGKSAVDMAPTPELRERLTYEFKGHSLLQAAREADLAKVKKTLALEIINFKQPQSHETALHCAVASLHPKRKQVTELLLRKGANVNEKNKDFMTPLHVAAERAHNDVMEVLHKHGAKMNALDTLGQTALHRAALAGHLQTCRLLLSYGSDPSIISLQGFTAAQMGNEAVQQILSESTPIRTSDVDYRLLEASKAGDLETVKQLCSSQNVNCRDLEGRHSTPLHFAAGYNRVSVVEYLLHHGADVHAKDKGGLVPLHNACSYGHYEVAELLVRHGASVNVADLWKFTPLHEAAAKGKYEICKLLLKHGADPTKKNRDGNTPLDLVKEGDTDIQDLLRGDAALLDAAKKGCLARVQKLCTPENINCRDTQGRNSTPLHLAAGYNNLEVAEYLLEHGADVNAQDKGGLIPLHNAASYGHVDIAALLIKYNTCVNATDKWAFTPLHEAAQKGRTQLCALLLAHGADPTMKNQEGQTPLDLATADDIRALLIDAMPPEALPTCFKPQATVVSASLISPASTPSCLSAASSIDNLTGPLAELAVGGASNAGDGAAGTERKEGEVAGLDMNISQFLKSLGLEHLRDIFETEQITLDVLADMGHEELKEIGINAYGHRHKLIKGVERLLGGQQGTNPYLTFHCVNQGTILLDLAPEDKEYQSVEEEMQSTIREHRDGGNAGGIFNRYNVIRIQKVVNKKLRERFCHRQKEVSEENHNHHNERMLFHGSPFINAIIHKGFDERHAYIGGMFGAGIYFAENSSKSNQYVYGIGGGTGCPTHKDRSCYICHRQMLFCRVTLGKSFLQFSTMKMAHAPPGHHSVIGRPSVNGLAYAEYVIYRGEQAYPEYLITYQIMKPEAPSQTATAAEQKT
Description: Inhibition of recombinant human N-terminal TEV cleavage site-fused/FLAG-poly his-tagged TNKS SAM-PARP domain (1024 to 1327 residues) expressed in Escherichia coli assessed as reduction in auto-PARylation preincubated for 10 mins followed by biotinylated-NAD+ addition and measured after 45 mins by ELISA

[9] = target: T3, Tankyrase 1/2 (Homo sapiens, UniProt Q9H2K2+O95271); settings: hek293
T3 sequence (Q9H2K2 whole entry): T1 sequence (Q9H2K2 whole entry)
T3 sequence (O95271 whole entry): T2 sequence (O95271 whole entry)
Description: Inhibition of TNKS/TNKS2 (unknown origin) expressed in HEK293 cells assessed as reduction in Wnt-signaling measured after 24 hrs by TCF-luciferase reporter gene assay

[10] = target: T3, Tankyrase 1/2
Description: Inhibition of TNKS/TNKS2 (unknown origin) expressed in human DLD1 cells assessed as reduction in Wnt-signaling measured after 24 hrs by TCF-luciferase reporter gene assay

[11] = physchem; settings: phosphate buffered saline, pH 7.4

SMILES	IC50 [1] [µM]	GI50 [2] [µM]	remaining at 1 h, 1 µM [3] [%]	remaining at 1 h, 1 µM [4] [%]	efflux ratio [5]	efflux ratio [6]	Ratio [7]	IC50 [8] [µM]	IC50 [9] [µM]	IC50 [10] [µM]	solubility at 1 h, 200 µM [11] [mg/mL]
CN1CCCc2c1nc(N1CCC3(CC1)C(=O)N(C)c1cc(N4CCNCC4)cc(F)c13)[nH]c2=O	0.0234	1.12	63.7	28.6	9.1	6.8	1.3	0.0128	0.0032	0.0291	0.0973 (≈ 202 µM)
CN1CCCc2c1nc(N1CCC3(CC1)C(=O)N(C)c1cc(F)cc(F)c13)[nH]c2=O	0.0107	0.22	0	0.3	3.1	1.1	2.8	0.0079	0.0039	0.0144	0.016 (≈ 38.5 µM)
CN1CCCc2c1nc(N1CCC3(CC1)C(=O)N(C)c1cc(OCCN4CCOCC4)cc(F)c13)[nH]c2=O	0.0171	0.33	41.4	1.5	29.1	5.1	5.7	0.0092	0.0003	0.0028	0.101 (≈ 192 µM)
CN1CCCc2c1nc(N1CCC3(CC1)C(=O)N(C)c1cc(N4CCOCC4)cc(F)c13)[nH]c2=O	0.0105	0.1	46.5	6.3	7.8	1.9	4.1	0.0149	0.0001	0.002	0.0722 (≈ 150 µM)

The next compounds have a lower IC50 [1] than those just listed; values first:

IC50 [1] [µM]	GI50 [2] [µM]	remaining at 1 h, 1 µM [3] [%]	remaining at 1 h, 1 µM [4] [%]	efflux ratio [5]	efflux ratio [6]	Ratio [7]	IC50 [8] [µM]	IC50 [9] [µM]	IC50 [10] [µM]	solubility at 1 h, 200 µM [11] [mg/mL]	SMILES
0.0061	0.44	1.2	6.1	11.7	2.3	5.1	0.0037	0.0002	0.0016	0.0505 (≈ 115 µM)	CN1CCCc2c1nc(N1CCC3(CC1)C(=O)N(CC#N)c1cc(F)cc(F)c13)[nH]c2=O
0.0062	0.13	0	1.9	2.7	1.1	2.5	0.0044	0.0002	0.0045	0.0048 (≈ 11.2 µM)	COc1cc(F)c2c(c1)N(C)C(=O)C21CCN(c2nc3c(c(=O)[nH]2)CCCN3C)CC1
